Measured values published in PMC12687421, “Characterisation of an allosteric site in PLCγ enzymes and implications for development of their specific inhibitors” (Biochemical Journal, 2025).

Key:
Type in all cases: biochemical
PLCγ1^wt = target: T1, PLCγ1^wt (Homo sapiens, UniProt P19174, I813T); experiment: PLC activity assay 1 (A1), XY-69 substrate in liposomes, nucleotide inhibition; settings: for IC50: XY-69 in liposomes, mean and SD, nine replicates
T1 construct: specific activities of PLCγ1^wt and PLCγ2^wt full-length proteins; made in house; host or cells: Escherichia coli T7 Express lysY/Iq
T1 sequence (P19174 1-1291 isoform P19174-2 I813T): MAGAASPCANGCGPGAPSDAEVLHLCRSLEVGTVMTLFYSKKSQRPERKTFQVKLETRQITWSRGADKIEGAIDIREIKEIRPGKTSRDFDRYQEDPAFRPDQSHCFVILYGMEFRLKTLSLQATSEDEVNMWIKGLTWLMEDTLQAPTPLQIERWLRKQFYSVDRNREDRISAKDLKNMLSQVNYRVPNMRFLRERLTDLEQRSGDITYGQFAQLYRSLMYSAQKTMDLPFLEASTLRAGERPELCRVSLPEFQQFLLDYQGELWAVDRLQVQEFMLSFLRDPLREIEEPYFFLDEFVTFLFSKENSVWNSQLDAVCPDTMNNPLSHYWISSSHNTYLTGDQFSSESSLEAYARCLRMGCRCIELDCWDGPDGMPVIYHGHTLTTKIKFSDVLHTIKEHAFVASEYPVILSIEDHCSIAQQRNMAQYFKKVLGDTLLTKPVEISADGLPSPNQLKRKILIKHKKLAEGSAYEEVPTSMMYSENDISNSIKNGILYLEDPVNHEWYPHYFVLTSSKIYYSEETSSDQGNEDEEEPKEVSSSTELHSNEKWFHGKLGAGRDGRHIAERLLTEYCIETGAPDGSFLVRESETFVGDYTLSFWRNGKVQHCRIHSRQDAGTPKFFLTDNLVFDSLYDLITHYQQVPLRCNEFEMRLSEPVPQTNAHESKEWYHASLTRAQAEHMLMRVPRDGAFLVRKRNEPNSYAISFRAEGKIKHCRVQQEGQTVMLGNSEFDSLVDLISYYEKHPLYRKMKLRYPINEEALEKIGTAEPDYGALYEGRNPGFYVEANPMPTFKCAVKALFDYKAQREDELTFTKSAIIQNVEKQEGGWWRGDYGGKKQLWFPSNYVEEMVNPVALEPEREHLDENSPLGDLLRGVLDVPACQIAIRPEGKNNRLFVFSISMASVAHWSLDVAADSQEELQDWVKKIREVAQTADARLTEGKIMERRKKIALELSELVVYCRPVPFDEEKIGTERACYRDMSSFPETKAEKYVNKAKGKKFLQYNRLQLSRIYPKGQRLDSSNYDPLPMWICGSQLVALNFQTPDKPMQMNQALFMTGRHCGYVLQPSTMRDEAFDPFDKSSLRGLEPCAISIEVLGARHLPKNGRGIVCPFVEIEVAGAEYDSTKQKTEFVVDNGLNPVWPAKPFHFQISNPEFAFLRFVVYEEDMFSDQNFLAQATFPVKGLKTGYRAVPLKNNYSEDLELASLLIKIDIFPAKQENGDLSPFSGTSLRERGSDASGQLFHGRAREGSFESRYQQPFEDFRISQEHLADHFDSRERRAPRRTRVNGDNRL

PLCδ1 = target: T2, PLCδ1 (Homo sapiens, UniProt P51178); experiment: PLC activity assay 1 (A1), PLCδ1; settings: substrate in solution or in lipid vesicles (Figure 3C, D); except small changes at very high concentration
T2 construct: made in house; host or cells: Escherichia coli T7 Express lysY/Iq
T2 sequence (P51178 1-756): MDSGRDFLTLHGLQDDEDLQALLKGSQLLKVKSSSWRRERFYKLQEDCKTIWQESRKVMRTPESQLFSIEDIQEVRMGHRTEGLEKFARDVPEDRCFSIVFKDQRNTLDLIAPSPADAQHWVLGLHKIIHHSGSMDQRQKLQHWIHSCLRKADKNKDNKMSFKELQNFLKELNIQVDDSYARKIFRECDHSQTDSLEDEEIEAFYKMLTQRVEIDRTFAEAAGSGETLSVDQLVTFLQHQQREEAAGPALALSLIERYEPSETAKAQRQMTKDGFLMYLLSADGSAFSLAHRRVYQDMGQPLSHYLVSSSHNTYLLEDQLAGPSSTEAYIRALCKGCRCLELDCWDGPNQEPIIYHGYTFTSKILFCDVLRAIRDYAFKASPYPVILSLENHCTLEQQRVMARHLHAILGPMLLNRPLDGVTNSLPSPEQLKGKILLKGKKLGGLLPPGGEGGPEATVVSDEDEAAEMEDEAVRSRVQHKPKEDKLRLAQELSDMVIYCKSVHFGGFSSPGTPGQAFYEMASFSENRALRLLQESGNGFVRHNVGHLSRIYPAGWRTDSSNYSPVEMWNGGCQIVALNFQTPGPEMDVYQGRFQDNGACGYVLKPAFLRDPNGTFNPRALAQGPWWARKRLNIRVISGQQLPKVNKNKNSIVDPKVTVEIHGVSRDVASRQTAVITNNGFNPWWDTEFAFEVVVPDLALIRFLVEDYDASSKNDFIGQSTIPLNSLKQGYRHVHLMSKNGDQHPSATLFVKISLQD

PLCβ2 = target: T3, PLCβ2 (Homo sapiens, UniProt Q00722); experiment: PLC activity assay 1 (A1), PLCβ2; settings: substrate in solution or in lipid vesicles (Figure 3C, D); except small changes at very high concentration
T3 construct: made in house; host or cells: Escherichia coli T7 Express lysY/Iq
T3 sequence (Q00722 whole entry, species assumed): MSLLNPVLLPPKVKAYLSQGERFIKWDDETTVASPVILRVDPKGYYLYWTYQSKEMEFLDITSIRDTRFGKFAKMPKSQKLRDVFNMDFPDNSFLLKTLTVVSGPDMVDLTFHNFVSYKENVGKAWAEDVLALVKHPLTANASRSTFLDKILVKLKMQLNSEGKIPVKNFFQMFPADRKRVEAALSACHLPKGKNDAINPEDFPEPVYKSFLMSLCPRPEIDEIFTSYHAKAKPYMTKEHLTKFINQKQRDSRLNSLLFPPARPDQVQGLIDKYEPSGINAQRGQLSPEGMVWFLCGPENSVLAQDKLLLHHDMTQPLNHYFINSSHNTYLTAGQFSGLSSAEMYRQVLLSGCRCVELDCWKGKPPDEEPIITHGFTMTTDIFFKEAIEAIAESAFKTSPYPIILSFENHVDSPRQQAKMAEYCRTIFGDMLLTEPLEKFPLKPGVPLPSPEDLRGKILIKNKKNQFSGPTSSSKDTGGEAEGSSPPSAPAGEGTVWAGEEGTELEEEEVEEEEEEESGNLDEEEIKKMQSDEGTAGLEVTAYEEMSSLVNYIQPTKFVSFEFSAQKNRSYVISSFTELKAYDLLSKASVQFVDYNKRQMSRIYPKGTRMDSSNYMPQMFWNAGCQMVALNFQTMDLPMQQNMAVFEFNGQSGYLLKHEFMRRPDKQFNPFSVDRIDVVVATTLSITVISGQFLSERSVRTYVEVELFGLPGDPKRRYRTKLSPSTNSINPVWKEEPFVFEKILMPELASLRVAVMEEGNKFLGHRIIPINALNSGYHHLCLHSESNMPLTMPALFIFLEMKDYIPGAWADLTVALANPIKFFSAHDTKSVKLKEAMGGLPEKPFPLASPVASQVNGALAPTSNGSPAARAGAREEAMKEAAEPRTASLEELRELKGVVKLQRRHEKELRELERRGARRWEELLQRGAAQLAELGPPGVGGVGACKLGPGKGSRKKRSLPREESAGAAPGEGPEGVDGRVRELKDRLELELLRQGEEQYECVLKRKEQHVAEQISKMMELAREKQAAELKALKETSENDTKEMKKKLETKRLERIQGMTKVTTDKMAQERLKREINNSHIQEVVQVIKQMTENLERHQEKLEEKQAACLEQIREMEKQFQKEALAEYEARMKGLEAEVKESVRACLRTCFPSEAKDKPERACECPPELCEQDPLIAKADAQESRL

IC50 in liposome assay (A1) relative to solution assay (A2), fold lower (PLCγ1^wt) | IC50 (PLCγ1^wt) [µM] | IC50 of ADP relative to ATP (fold lower) (PLCγ1^wt; assays A1 and A2) | effect on PLC activity of PLCδ1 (PLCδ1) | effect on PLC activity of PLCβ2 (PLCβ2) | Structure (SMILES)
eight-fold | 1 to 20 | 2–4 fold | not affected | not affected | Nc1ncnc2c1ncn2[C@@H]1O[C@H](COP(=O)(O)OP(=O)(O)O)[C@@H](O)[C@H]1O [ADP]
– | 1 to 20 | – | not affected | not affected | Nc1ncnc2c1ncn2[C@@H]1O[C@H](COP(=O)(O)OP(=O)(O)OP(=O)(O)O)[C@@H](O)[C@H]1O [ATP]
